According to the supplement of paper PMC10627819:

What was measured:
B. subtilis 168 [1] = test: fitness (endpoint OD595 vs no drug) (fraction); higher = more growth
Outline: (§1)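 At 37 °C, bacteria in TSB, LB Lennox or CY were grown in 384-well plates from a starting OD595 of 0.01. OD595 was measured every 30 min for 14 h, with the first reading used as background. Fitness is the optical density at the switch to stationary phase as a fraction of the robust mean of no-drug control wells, capped at 1.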

S. aureus DSM 20231 [2] = test: as above
Outline: as §1

S. aureus Newman [3] = test: as above
Outline: as §1

S. pneumoniae D39V [4] = test: as above
Outline: as §1

B. subtilis 168 [5] = test: Bliss interaction score (quartile over a dose matrix) (fitness difference); higher = more antagonism (negative = synergy)
Outline: (§2)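 Quartiles of the Bliss score were taken over technical, biological and donor/recipient replicates. That score is observed fitness minus the product of the single-drug fitness values, which were inferred from combination data. Fitness itself is OD595 at entry into stationary phase divided by the plate's robust no-drug mean, with a cap at 1.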

S. aureus DSM 20231 [6] = test: as above
Outline: as §2

S. aureus Newman [7] = test: as above
Outline: as §2

S. pneumoniae D39V [8] = test: as above
Outline: as §2
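Throughout, for Bliss interaction score (quartile over a dose matrix): first quartile when negative (synergy) and third quartile when positive (antagonism).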

COc1c(N2C[C@@H]3CCCN[C@@H]3C2)c(F)cc2c(=O)c(C(=O)O)cn(C3CC3)c12 [Moxifloxacin] + Cc1cc(NS(=O)(=O)c2ccc(N)cc2)no1 [Sulfamethoxazol]
one replicate
Conditions | fitness
B. subtilis 168 [1], first compound 0.0312 µg/mL, partner 0.5 µg/mL | 0.0261
B. subtilis 168 [1], first compound 0.0625 µg/mL, partner 0.5 µg/mL | 0.034
B. subtilis 168 [1], first compound 0.125 µg/mL, partner 0.5 µg/mL | 0.0283
S. aureus DSM 20231 [2], first compound 0.06 µg/mL, partner 1 µg/mL | 0.669
S. aureus DSM 20231 [2], first compound 0.06 µg/mL, partner 2 µg/mL | 0.655
S. aureus DSM 20231 [2], first compound 0.06 µg/mL, partner 4 µg/mL | 0.655
S. aureus DSM 20231 [2], first compound 0.12 µg/mL, partner 1 µg/mL | 0.445
S. aureus DSM 20231 [2], first compound 0.12 µg/mL, partner 2 µg/mL | 0.44
S. aureus DSM 20231 [2], first compound 0.12 µg/mL, partner 4 µg/mL | 0.431
S. aureus Newman [3], first compound 0.0075 µg/mL, partner 8 µg/mL | 0.934
S. aureus Newman [3], first compound 0.015 µg/mL, partner 8 µg/mL | 0.887
S. aureus Newman [3], first compound 0.03 µg/mL, partner 8 µg/mL | 0.784
S. pneumoniae D39V [4], first compound 0.0037 µg/mL, partner 1 µg/mL | 0.897
S. pneumoniae D39V [4], first compound 0.0037 µg/mL, partner 2 µg/mL | 0.856
S. pneumoniae D39V [4], first compound 0.0037 µg/mL, partner 4 µg/mL | 0.797
S. pneumoniae D39V [4], first compound 0.0075 µg/mL, partner 1 µg/mL | 0.869
S. pneumoniae D39V [4], first compound 0.0075 µg/mL, partner 2 µg/mL | 0.857
S. pneumoniae D39V [4], first compound 0.0075 µg/mL, partner 4 µg/mL | 0.797
S. pneumoniae D39V [4], first compound 0.015 µg/mL, partner 1 µg/mL | 0.842
S. pneumoniae D39V [4], first compound 0.015 µg/mL, partner 2 µg/mL | 0.828
S. pneumoniae D39V [4], first compound 0.015 µg/mL, partner 4 µg/mL | 0.79

fitness
Conditions | partner 1 µg/mL | partner 2 µg/mL | partner 4 µg/mL
B. subtilis 168 [1], first compound 0.0312 µg/mL | 0.0226 | 0.0442 | 0.0303
B. subtilis 168 [1], first compound 0.0625 µg/mL | 0.0292 | 0.0328 | 0.0239
B. subtilis 168 [1], first compound 0.125 µg/mL | 0.0176 | 0.0212 | 0.0185
B. subtilis 168 [1], first compound 2 µg/mL | 0.0112 | 0.0253 | 0.0113
B. subtilis 168 [1], first compound 4 µg/mL | 0.0152 | 0.0241 | 0.0125
B. subtilis 168 [1], first compound 8 µg/mL | 0.0212 | 0.0227 | 0.0093
S. aureus DSM 20231 [2], first compound 0.0075 µg/mL | 0.78 | 0.829 | 0.765
S. aureus DSM 20231 [2], first compound 0.015 µg/mL | 0.69 | 0.724 | 0.76
S. aureus DSM 20231 [2], first compound 0.03 µg/mL | 0.586 | 0.682 | 0.692
S. aureus Newman [3], first compound 0.0075 µg/mL | 0.776 | 0.795 | 0.749
S. pneumoniae D39V [4], first compound 0.005 µg/mL | 0.944 | 0.969 | 0.958
S. pneumoniae D39V [4], first compound 0.01 µg/mL | 0.949 | 0.955 | 0.987
S. pneumoniae D39V [4], first compound 0.02 µg/mL | 0.894 | 0.912 | 0.926

Conditions | Bliss interaction score
B. subtilis 168 [5] | -0.0331
S. aureus DSM 20231 [6] | -0.0783
S. aureus Newman [7] | -0.071
S. pneumoniae D39V [8] | -0.0536
